{
  "source": "patent US20250353873A1",
  "about": "“COMPOUNDS AND METHODS FOR MODULATING APOE EXPRESSION” (Ionis Pharmaceuticals, Inc., priority 2024, published 2025)",
  "key": {"[1]": {"system": "human APOE RNA", "experiment": "Activity in APOE C57BL/6NTac-Apoeem7250 knock-in mice, single ICV bolus, 8 weeks (Example 11)", "type": "in vivo", "details": "single ICV bolus 300 μg, 8 weeks post treatment, normalized to mouse Ppia", "procedure,_shortened": "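Human APOE knock-in C57BL/6NTac mice given one ICV bolus of 300 μg oligonucleotide; PBS-dosed group as control. At 8 weeks, cortex and spinal cord RNA measured by qRT-PCR (human probe RTS3073), normalized to mouse Ppia, expressed as % of PBS control.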"}, "[2]": {"system": "human APOE RNA", "experiment": "Duration of action study in APOE C57BL/6NTac-Apoeem7250 knock-in mice (Example 18)", "type": "in vivo", "details": "300 μg ICV", "protocol": "Modified oligonucleotides described above were tested in the APOE C57BL/6NTac-Apoeem7250 knock-in model (described above).\nEach mouse received a single intracerebroventricular (ICV) bolus of 300 μg of modified oligonucleotide. A group of 4-6 mice received a single ICV bolus with PBS as a negative control.\nMice were sacrificed at various timepoints as indicated in the table below and RNA was extracted from cortical brain tissue and spinal cord for quantitative real-time RT-PCR analysis of RNA expression of APOE using primer probe set RTS3073 (described herein above). APOE RNA levels were normalized to mouse Ppia. Mouse Ppia was amplified using primer probe set m_cyclo24 (described herein above). Results are presented as percent human APOE RNA relative to the amount of human APOE RNA in PBS treated animals, (% control). Each experiment is identified in separate tables below."}},
  "note": "Marks after values point to notes of the source that are not given here. Strand notation (5' to 3'): a small letter for the sugar, then the base; units joined by * are phosphorothioate-linked, units joined directly phosphodiester-linked; [ ] holds rarer units or linkages, { } end groups; capitals alone tell only the bases. [ms] = mesyl phosphoramidate linkage; e = 2'-O-(2-methoxyethyl) (MOE); k = constrained ethyl (cEt); [5mC] = 5-methylcytosine; d = 2'-deoxy (DNA)",
  "data": [
    {"substance": "1809636 (kA*e[5mC]eTeT*eG*kG*dT*dG[ms]dA[ms]dA[ms]dT*d[5mC]*dT*dT*dT*dA[ms]kT*kT*eA*kA; antisense) [Compound 1809636]", "values": [
      {"measurement": "APOE RNA (% control) Cortex", "setting": "[1]", "result": 16, "unit": "% control"},
      {"measurement": "APOE RNA (% control) Spinal Cord", "setting": "[1]", "result": 11, "unit": "% control"},
      {"measurement": "APOE RNA (% control) Cortex", "setting": "[2]; 56 days post-dose", "result": 32, "unit": "% control"},
      {"measurement": "APOE RNA (% control) Cortex", "setting": "[2]; 112 days post-dose", "result": 33, "unit": "% control"},
      {"measurement": "APOE RNA (% control) Cortex", "setting": "[2]; 224 days post-dose", "result": "65‡ % control"},
      {"measurement": "APOE RNA (% control) Spinal Cord", "setting": "[2]; 56 days post-dose", "result": 14, "unit": "% control"},
      {"measurement": "APOE RNA (% control) Spinal Cord", "setting": "[2]; 112 days post-dose", "result": 13, "unit": "% control"},
      {"measurement": "APOE RNA (% control) Spinal Cord", "setting": "[2]; 224 days post-dose", "result": "41‡ % control"}
    ]},
    {"substance": "1809637 (kA*e[5mC]eTeT*eG*kG*dT*dG[ms]dA[ms]dA[ms]dT*d[5mC]*dT*dT*dT*dA[ms]kT*kT*kA*kA; antisense) [Compound 1809637]", "values": [
      {"measurement": "APOE RNA (% control) Cortex", "setting": "[1]", "result": 20, "unit": "% control"},
      {"measurement": "APOE RNA (% control) Spinal Cord", "setting": "[1]", "result": 9, "unit": "% control"},
      {"measurement": "APOE RNA (% control) Cortex", "setting": "[2]; 56 days post-dose", "result": "26‡ % control"},
      {"measurement": "APOE RNA (% control) Cortex", "setting": "[2]; 112 days post-dose", "result": 42, "unit": "% control"},
      {"measurement": "APOE RNA (% control) Cortex", "setting": "[2]; 224 days post-dose", "result": "58‡ % control"},
      {"measurement": "APOE RNA (% control) Spinal Cord", "setting": "[2]; 56 days post-dose", "result": 19, "unit": "% control"},
      {"measurement": "APOE RNA (% control) Spinal Cord", "setting": "[2]; 112 days post-dose", "result": 17, "unit": "% control"},
      {"measurement": "APOE RNA (% control) Spinal Cord", "setting": "[2]; 224 days post-dose", "result": "36‡ % control"}
    ]}
  ]
}
